Article PMC4467461, “Small-molecule activation of SERCA2a SUMOylation for the treatment of heart failure” (Nature Communications, 2015)
“Also recorded” adds a separate entry of the source.

What was measured:
[1] = system: sham-operated mice; experiment: Haemodynamic measurements in sham-operated mice; format: in vivo; details: sham mice, 0.1, 1, 10 mg kg^−1
Experimental: One day after echocardiography, we performed in-vivo haemodynamics. The mice were anaesthetized with an intraperitoneal injection mixture of urethane (1 mg g^−1), etomidate (10 μg g^−1) and morphine (1 μg g^−1), and were then intubated via a tracheotomy and mechanically ventilated at 7 μl g^−1 tidal volume and 120 respirations per minute. A small incision was made in the apex and a French Millar cathether connected a high-fidelity pressure transducer (Scisense, London, ON, Canada) inserted into the LV. Haemodynamic recordings were performed after 5∼10 min of stable HR. The rate of pressure rise (+dP/dt) and maximal pressure, the time constant of isovolumic relaxation and HR were recorded and analysed. To determine the relative effects of the admittance and conductance techniques to contractility change induced by N106 compound infusion, whole haemodynamic function was recorded at both baseline and after administration of N106 compound through the external jugular vein. N106 compound was solubilized in 10% DMSO (Sigma-Aldrich), 10% Tween-80 (Sigma-Aldrich) and saline for in-vivo experiments. N106 or vehicle solutions were continuously infused through the external jugular vein at a rate of 50 μl min^−1 for 2 min in each dose. Whole haemodynamic functions of increasing dose of N106 of each mouse were recorded for ∼4 h. […]

[2] = system: isolated adult cardiomyocytes; experiment: Cardiomyocyte contractility and calcium transient, video-based edge-detection system (IonOptix); format: cell-based, Sprague–Dawley rats
Experimental: Figure 1 N106 increases SERCA2a’s cellular activity and SUMOylation in adult cardiomyocytes. In-vitro characterization of activators of SERCA2a SUMOylation. Cell-based screening of small molecules identified one promising compound. Adult ventricular cardiomyocytes were isolated from Sprague–Dawley rats and treated with small molecules on dose-dependent manner for 24 h. DMSO-treated cardiomyocytes were used as a negative control. (a) Chemical structure of SERCA2a SUMOylation activator. N106, N-(4-methoxybenzo[d]thiazol-2-yl)-5-(4-methoxyphenyl)-1,3,4-oxadiazol-2-amine. (b-g) The effects of N106 compound in cardiomyocyte contractility and calcium transient. The dose-dependent effects of N106 compound presented on peak shortening, the time to maximal departure velocity, the time to maximal return velocity, calcium ratio, decay time constant (τ) and the time to 90% baseline (t90) fluorescence in cardiomyocytes were assessed using a video-based edge-detection system (IonOptix Inc.). n=25 cardiomyocytes from each three of hearts per condition. (h) The effects of N106 compound on the ATPase activity of SERCA2a. The ATPase activity were measured at 25 °C in 50 mM MOPS, 100 mM KCl, 5 mM MgCl2, 1 mM […] at pCa 5.0 by using a coupled enzyme system consisting of pyruvate kinase and lactate dehydrogenase, and monitoring the oxidation of the reduced form of NADH at […]. The enzyme activity was determined by using same set of cardiomyocytes. (i) The effect of N106 compound for the formation of SUMOylated SERCA2a was determined using the same set of cardiomyocytes. Endogenous SERCA2a SUMOylation was detected by immunoprecipitation with anti-SERCA2a and then western blotting with anti-SUMO-1 antibodies. The experiments shown are representative of three independent experiments with similar results. (j) The effect of N106 compound on global SUMOylation was measured by western blot analysis with an anti-SUMO-1 antibody in the same set of cardiomyocytes. The experiments shown are representative of three independent western blottings. Data are represented as mean±s.e.m. (n=3 mice hearts per each condition). Data are represented as mean±s.e.m. *P≤0.05; **P<0.001 (Student’s t-test) from DMSO control.
Figure 2 Time-course experiments with N106 in isolated adult cardiomyocytes. (a–f) Adult ventricular cardiomyocytes were isolated from Sprague–Dawley rats and treated with 10 μM of N106 compound over a time course as indicated. The time course of the contractile response to N106 was determined as peak shortening (a), the time to maximal velocity of sarcomere shortening (b) and re-lengthening (c). The time-course changes in calcium kinetic parameters such as calcium transient (d), decay time constant (e) and the time to 90% baseline fluorescence in cardiomyocytes (f) were detected. n=25 cardiomyocytes from each three of hearts per condition. DMSO was used as vehicle control. The time courses of the ATPase activity of SERCA2a (g), level of SUMOylated SERCA2a (h) and level of SUMO-1 conjugates (i) were determined by using the same set of cardiomyocytes (two independent experiments). Data are represented as mean±s.e.m. *P≤0.05; **P<0.001 (Student’s t-test) from DMSO control.
Ventricular heart muscle cells were isolated from 180∼250 g male Sprague–Dawley rats as described. The hearts were perfused sequentially with low-calcium buffer, enzyme solutions containing collagenases and proteases, and high-potassium solution. Next, the hearts were minced, filtered and resuspended in high-potassium solution. The cardiomyocytes were plated on laminin-coated plates and cultured in medium M199 (Life Technologies, CT, USA) containing proper supplements. […]

[3] = screen of eight compounds, 10 μM, 24 h

## COc1ccc(-c2nnc(Nc3nc4c(OC)cccc4s3)o2)cc1 [Compound N106, N-(4-methoxybenzo[d]thiazol-2-yl)-5-(4-methoxyphenyl)-1,3,4-oxadiazol-2-amine]
[1]
  effect on ESPVR slope, dP/dt max, maximal pressure and heart rate: no significant effect; also recorded: not statistically significant
[2]; 10 μM, 24 h
  inotropic effect in isolated cardiomyocytes: positive inotropic effects
[2]; at over 50 μM concentration
  positive effect on cardiomyocytes contractility: no longer observed
[2]; dose–response, 10 nM, 24 h
  Calcium-transient amplitude: 0.18±0.01
  exponential decay of time constant, τ: 0.20 ± 0.01 s
  maximal velocities of cell contraction: −1.93±0.08 μm s^−1
  maximal velocities of cell relaxation: 1.76±0.08 μm s^−1
  peak shortening: 7.63±0.48%
  time for 90% decay, t90: 0.47 ± 0.02 s
[2]; dose–response, 100 nM, 24 h
  Calcium-transient amplitude: 0.21±0.01
  exponential decay of time constant, τ: 0.20 ± 0.01 s
  maximal velocities of cell contraction: −2.17±0.10 μm s^−1
  maximal velocities of cell relaxation: 1.98±0.12 μm s^−1
  peak shortening: 8.36±0.56%
  time for 90% decay, t90: 0.44 ± 0.02 s
[2]; dose–response, 10 μM, 24 h
  Calcium-transient amplitude: 0.19±0.00
  exponential decay of time constant, τ: 0.16 ± 0.008 s
  maximal velocities of cell contraction: −2.30±0.19 μm s^−1
  maximal velocities of cell relaxation: 1.99±0.15 μm s^−1
  peak shortening: 9.10±0.52%
  time for 90% decay, t90: 0.35 ± 0.006 s
[2]; [3]
  peak shortening: 12.03±0.80%
  transient calcium decay τ: 0.18 ± 0.02 s
[2]; time course, 10 μM, 10 min
  calcium amplitude (ratio 360/380 nm): 0.19±0.01
  maximal velocities of cell contraction: −1.97±0.04 μm s^−1
  maximal velocities of cell relaxation: 1.12±0.11 μm s^−1
  peak shortening: 9.65±0.27%
  t90: 0.40 ± 0.03 s
  τ: 0.17 ± 0.02 s
[2]; time course, 10 μM, 1 h
  maximal velocities of cell contraction: −1.92±0.09 μm s^−1
  maximal velocities of cell relaxation: 1.67±0.15 μm s^−1
  peak shortening: 8.60±0.23%
  t90: 0.35 ± 0.01 s
  τ: 0.14 ± 0.02 s
[2]; time course, 10 μM, 1 h (P=0.17)
  calcium amplitude (ratio 360/380 nm): 0.17±0.01
[2]; time course, 10 μM, 24 h
  calcium amplitude (ratio 360/380 nm): 0.18±0.008
  maximal velocities of cell contraction: −2.3±0.19 μm s^−1
  maximal velocities of cell relaxation: 1.99±0.15 μm s^−1
  peak shortening: 8.90±0.38%
  t90: 0.35 ± 0.006 s
  τ: 0.16 ± 0.008 s
